Laboratory results taken from patent publication US20210069135A1, “THERAPEUTIC APPROACHES FOR TREATING EPILEPSY AND RELATED DISORDERS THROUGH REDUCTION OF EPILEPTOGENESIS” (PHARNEXT, priority 2012, published 2021).
“Also recorded” adds a separate entry of the source.

Columns and labels:
[1] = system: PTZ-induced seizures in mice; test: Pentylenetetrazol (PTZ)-induced seizure in mice model; assay type: in vivo, CD-1 mice
Protocol: Four to five week old male CD-1 mice of about 20 g (Janvier; Le Genest St Isle—France) were acclimatized to the environment for one week before the experiment.
They were group-housed (5-10 mice per cage) and maintained in a room with controlled temperature (21-22° C.) and a reversed light-dark cycle (12 h/12 h; lights on: 17:30-05:30; lights off: 05:30-17:30) with food and water available ad libitum.
PTZ-induced seizures in mice are an accepted in vivo model for the screening of antiepileptic drugs. PTZ is a blocker of the chloride ionophore complex to the GABAA receptor that has […] effects after repeated or single dose administration and also affects several neurotransmitter systems, such as the GABAergic and glutamatergic systems. Seizures were induced by administration of 100 mg/kg (subcutaneously) of PTZ. Levetiracetam (500 mg/kg), used as an internal positive control, was administered 60 min before the PTZ injection. Drugs of the invention were injected per os 2 h before PTZ administration. Acamprosate calcium (two molecules of acamprosate for a calcium ion) was tested at three different doses.
As already stated, 100 mg/kg PTZ were injected subcutaneously and the animals were then observed for 1 h after injection. The latencies for clonic seizures, tonic seizures, and death were monitored. Clonic seizures consist in rhythmic contractions of forelimbs and/or hindlimbs. Tonic seizures consist in rigid extension of the forelimbs and/or hindlimbs.
Analysis of variance (ANOVA) was performed on the result data. Fisher's Protected Least Significant Difference was used for pairwise comparisons. Statistical difference was assessed by Fisher's exact test. p values≤0.05 were considered significant.

neuronal cortical cells = test: Glutamate toxicity assay on primary cortical neuron cells (neurite network, neurofilament immunostaining); assay type: cell-based, rat; details: for protection against glutamate toxicity, drug alone: torasemide or baclofen alone at the same doses as in the combination of FIG. 4 (400 nM, 2 μM), not significant
Protocol: Rat cortical neurons were cultured as described by Singer et al.. Briefly, pregnant female rats of 15 days gestation were killed by cervical dislocation (Rats Wistar) and the fetuses were removed from the uterus. The cortex was removed and placed in ice-cold medium of Leibovitz (L15) containing 2% of penicillin 10,000 U/mL and streptomycin 10 mg/mL and 1% of bovine serum albumin (BSA). Cortices were dissociated by trypsin for 20 min at 37° C. (0.05%). The reaction was stopped by the addition of Dulbecco's modified Eagle's medium (DMEM) containing DNasel grade II and 10% of foetal calf serum (FCS). Cells were then mechanically dissociated by 3 serial passages through a 10 mL pipette and centrifuged at 515×g for 10 min at +4° C. The supernatant was discarded and the pellet of cells was re-suspended in a defined culture medium consisting of Neurobasal supplemented with B27 (2%), L-glutamine (0.2 mM), 2% of PS solution and 10 ng/mL of BDNF. Viable cells were counted in a Neubauer cytometer using the trypan blue exclusion test. The cells were seeded at a density of 30 000 cells/well in 96 well-plates (wells were pre-coated with poly-L-lysine (10 μg/mL)) and were cultured at +37° C. in a humidified air (95%)/CO2 (5%) atmosphere.
After 12 days of neuron culture, drugs of the candidate combinations were solved in culture medium (+0.1% DMSO). Candidate drugs or drug combinations were then pre-incubated with neurons for 1 h before the glutamate injury. Glutamate was added for 20 min, to a final concentration of 40 μM in presence of candidate drugs or drug combinations. At the end of the incubation, medium was changed with medium with candidate combination but without glutamate. The culture was fixed 24 h after glutamate injury. MK801 (Dizocilpinehydrogen maleate, 77086-22-7-20 μM) was used as a positive control.
After permeabilization with saponin (Sigma), cells were blocked for 2 h with PBS containing 10% goat serum, then the cells were incubated with mouse monoclonal primary antibody against Neurofilament antibody (NF, Sigma).
Nuclei of cells were labeled by a fluorescent marker (Hoechst solution, SIGMA), and neurite network quantified. Six wells per condition were used to assess neuronal survival in 3 different cultures.

[2] = high dose of acamprosate calcium
[3] = low dose of acamprosate calcium
[4] = baclofen 400 nM alone or acamprosate 1.6 nM alone, FIG. 3
[5] = baclofen 2 μM alone or torasemide 400 nM alone, FIG. 4
[6] = cinacalcet 64 μM alone or mexiletine 25.6 μM alone, FIG. 1
[7] = levetiracetam 500 mg/kg 60 min before PTZ
[8] = sulfisoxazole 6.8 nM alone or torasemide 400 nM alone, FIG. 2

## CC(=O)NCCCS(=O)(=O)[O-].CC(=O)NCCCS(=O)(=O)[O-].[Ca+2] [acamprosate calcium]
[1]; acamprosate calcium 0.032 mg/kg, PTZ 100 mg/kg s.c., not shown
  latency to clonic seizure (in words): increase
[1]; acamprosate calcium 0.5 mg/kg per os 2 h before PTZ 100 mg/kg s.c., FIG. 6, p<0.05 vs vehicle
  latency to clonic seizure (in words): significant increase
[1]; acamprosate calcium 0.5 mg/kg per os 2 h before PTZ 100 mg/kg s.c., FIG. 6, p<0.05 vs vehicle, listed as Acamprosate calcium
  latency to clonic seizure (in words): efficient in increasing
[1]; [2]
  reduction of prevalence of death: 38%
  reduction of prevalence of mice with clonic seizure: 30%
  reduction of prevalence of mice with tonic seizure: 38%
[1]; [3]
  reduction of prevalence of death: 25%
  reduction of prevalence of mice with clonic seizure: 20%
  reduction of prevalence of mice with tonic seizure: 25%

## CC(=O)NCCCS(=O)(=O)O [acamprosate, Acamprosate]
Neuronal cortical cells; [4]
  effect on glutamate intoxication, drug alone: no statistically significant effect

## NCC(CC(=O)O)c1ccc(Cl)cc1 (stereo not shown) [baclofen, Baclofen]
Neuronal cortical cells; [4]
  effect on glutamate intoxication, drug alone: no statistically significant effect
Neuronal cortical cells; [5]
  effect on glutamate intoxication, drug alone: no significant results; also recorded: no statistically significant effect
Neuronal cortical cells
  protection against glutamate toxicity, drug alone: 13%

## C[C@@H](NCCCc1cccc(C(F)(F)F)c1)c1cccc2ccccc12 [cinacalcet, Cinacalcet]
Neuronal cortical cells; [6]
  effect on glutamate intoxication, drug alone: no protection at all; also recorded: no significant effect

## CC[C@@H](C(N)=O)N1CCCC1=O [levetiracetam]
[1]; [7]
  PTZ-induced death (in words): reversed
  PTZ-induced tonic seizure (in words): reversed
[1]; levetiracetam 500 mg/kg 60 min before PTZ 100 mg/kg s.c., FIG. 6
  time to clonic seizure (in words): no significant effect

## Cc1cccc(C)c1OCC(C)N (stereo not shown) [mexiletine, Mexiletine]
Neuronal cortical cells; [6]
  effect on glutamate intoxication, drug alone: no protection at all; also recorded: no significant effect

## Cc1noc(NS(=O)(=O)c2ccc(N)cc2)c1C [sulfisoxazole, Sulfisoxazole]
Neuronal cortical cells; [8]
  effect on glutamate intoxication, drug alone: no significant effect

## Cc1cccc(Nc2ccncc2S(=O)(=O)NC(=O)NC(C)C)c1 [torasemide, Torasemide]
Neuronal cortical cells; [5]
  effect on glutamate intoxication, drug alone: no significant results; also recorded: no statistically significant effect
Neuronal cortical cells; [8]
  effect on glutamate intoxication, drug alone: no significant effect
Neuronal cortical cells
  protection against glutamate toxicity, drug alone: 8%
